The numbers were not newly measured in patent publication US10538548B2, “Material mixture containing rubusoside or alpha glycosylrubusoside, for enhancing sweet taste” (SYMRISE AG, priority 2014, dated 2020), which cites them from elsewhere.

For the data set the following is noted: pure rubusoside.

Consider `C=C1C[C@@]23CC[C@H]4[C@@](C)(CCC[C@@]4(C)C(=O)O[C@@H]4O[C@H](CO)[C@@H](O)[C@H](O)[C@H]4O)[C@@H]2CC[C@]1(O[C@@H]1O[C@H](CO)[C@@H](O)[C@H](O)[C@H]1O)C3` [rubusoside, Rubusoside], for which the “sweetening power relative to sugar” value was 200 times.
